By pKa is commonly meant the negative logarithm of the acid dissociation constant.

The subject of data set [1] is Methicillin resistant Staphylococcus. The data set can be described thus: Gradient Plate technique, MIC. It is filed as cell-based. To be noted: Clinical Isolate X400 (methicillin resistant).
For data set [2], the system named is Enterobacter aerogenes EB17. The data set can be described thus: standard agar dilution method, MIC. It is filed as cell-based. As to conditions: Klebsiella aerogenes, read-out: Minimum Inhibitory Concentration. An excerpt:
(§1) In Table IX which follows, the MIC values against a spectrum of microorganisms obtained with the test compound are presented. The test method was the standard agar dilution method.
(In agar dilution, organisms are placed on agar that contains the substance at set levels.)

A further data set relates to Escherichia coli EC14. The data set can be described thus: standard agar dilution method, MIC. To be noted: read-out: Minimum Inhibitory Concentration. The data set is classed as cell-based.
Source text: as §1

Data set [3] concerns Pseudomonas solanacearcum X185. The data set can be described thus: standard agar dilution method, MIC. The data set is classed as cell-based. As to conditions: read-out: Minimum Inhibitory Concentration.
Source text: as §1

The test system of another data set is Salmonella typhimurium. The data set can be described thus: standard agar dilution method, MIC. It is filed as cell-based. To be noted: Salmonella enterica, read-out: Minimum Inhibitory Concentration.
Source text: as §1

Another data set has as its system Aspergillus flavus E. The data set can be described thus: standard agar dilution method, MIC. To be noted: read-out: Minimum Inhibitory Concentration. The data set is classed as cell-based.
Source text: as §1

Data set [4] deals with Streptococcus faecalis X66. The data set can be described thus: standard agar dilution method, MIC. It is filed as cell-based. As to conditions: Enterococcus faecalis, read-out: Minimum Inhibitory Concentration.
Source text: as §1

The subject of data set [5] is Staphylococcus aureus 3055. The data set can be described thus: standard agar dilution method, MIC. It is filed as cell-based. To be noted: read-out: Minimum Inhibitory Concentration.
Source text: as §1

The test system of another data set is Proteus morganii PR15. The data set can be described thus: standard agar dilution method, MIC. The data set is classed as cell-based. As to conditions: Morganella morganii, read-out: Minimum Inhibitory Concentration.
Source text: as §1

The test system of a further data set is Erwinia amylovora. The data set can be described thus: standard agar dilution method, MIC. It is filed as cell-based. As to conditions: read-out: Minimum Inhibitory Concentration.
Source text: as §1

In the next data set the test system is Serratia marcescens SE3. The data set can be described thus: standard agar dilution method, MIC. The data set is classed as cell-based. As to conditions: read-out: Minimum Inhibitory Concentration.
Source text: as §1

In a further data set the test system is Candida tropicalis A17. The data set can be described thus: standard agar dilution method, MIC. To be noted: read-out: Minimum Inhibitory Concentration. It is filed as cell-based.
Source text: as §1

The test system of another data set is Ceratocystis ulmi. The data set can be described thus: standard agar dilution method, MIC. To be noted: read-out: Minimum Inhibitory Concentration. The data set is classed as cell-based.
Source text: as §1

Data set [6] has as its system Klebsiella pneumoniae KL14. The data set can be described thus: standard agar dilution method, MIC. It is filed as cell-based. As to conditions: read-out: Minimum Inhibitory Concentration.
Source text: as §1

For a further data set, the system named is Salmonella typhosa SA12. The data set can be described thus: standard agar dilution method, MIC. The data set is classed as cell-based. As to conditions: Salmonella enterica, read-out: Minimum Inhibitory Concentration.
Source text: as §1

The test system of another data set is Citrobacter freundii. The data set can be described thus: standard agar dilution method, MIC. The data set is classed as cell-based. As to conditions: read-out: Minimum Inhibitory Concentration.
Source text: as §1

The test system of data set [7] is Staphylococcus aureus 3074. The data set can be described thus: standard agar dilution method, MIC. The data set is classed as cell-based. To be noted: read-out: Minimum Inhibitory Concentration.
Source text: as §1

In data set [8] the test system is Pseudomonas aeruginosa X239. The data set can be described thus: standard agar dilution method, MIC. The data set is classed as cell-based. To be noted: read-out: Minimum Inhibitory Concentration.
Source text: as §1

Data set [9] deals with Trichophyton mentagrophytes 27. The data set can be described thus: standard agar dilution method, MIC. It is filed as cell-based. As to conditions: read-out: Minimum Inhibitory Concentration.
Source text: as §1

The subject of data set [10] is Bordetella bronchiseptica 16. The data set can be described thus: standard agar dilution method, MIC. The data set is classed as cell-based. To be noted: read-out: Minimum Inhibitory Concentration.
Source text: as §1

For the next data set, the system named is Escherichia coli. The data set can be described thus: Gradient Plate technique, MIC. As to conditions: read-out: Minimum Inhibitory Concentration. The data set is classed as cell-based. The text has this:
(§2) The following Table II lists the minimum inhibitory concentration (MIC) for 7-[2-(2-thienyl)acetamido]-3-chloro-3-cephem-4-carboxylic acid against penicillin resistant Staphylococcus both in the presence of and absence of serum. The MIC values were obtained by the Gradient Plate technique carried out essentially as described by Bryson and Szybalski, Science, 116, 45 (1952).
(§3) In Table III, below, the MIC values for the test compound of Tables I and II against representative gram-negative organisms is presented. The data were obtained by the Gradient Plate technique.
(§4) The minimum inhibitory concentrations for 7-[2-(2-thienyl)acetamido]-3-bromo-3-cephem-4-carboxylic acid against representative gram-negative bacteria is presented in Table VI. The data were obtained by the Gradient Plate Method.
(§5) Tables VII and VIII list the minimum inhibitory concentrations of the test compound effective against representative penicillin resistant Staphylococcus strains, while […] the MIC values obtained against representative gram-negative microorganisms. The data were obtained by the Gradient Plate method.

The next data set concerns Serratia marcescens. The data set can be described thus: Gradient Plate technique, MIC. The data set is classed as cell-based. To be noted: read-out: Minimum Inhibitory Concentration.
Source text: as §2, §3, §4, §5

The next data set concerns Salmonella heidelberg. The data set can be described thus: Gradient Plate technique, MIC. To be noted: Salmonella enterica, read-out: Minimum Inhibitory Concentration. The data set is classed as cell-based.
Source text: as §2, §3, §4, §5

The test system of another data set is Aerobacter aerogenes. The data set can be described thus: Gradient Plate technique, MIC. To be noted: Klebsiella aerogenes, read-out: Minimum Inhibitory Concentration. It is filed as cell-based.
Source text: as §2, §3, §4, §5

The test system of another data set is Pseudomonas aeruginosa. The data set can be described thus: Gradient Plate technique, MIC. It is filed as cell-based. To be noted: read-out: Minimum Inhibitory Concentration.
Source text: as §2, §3, §4, §5

For another data set, the system named is Shigella sp. The data set can be described thus: Gradient Plate technique, MIC. The data set is classed as cell-based. To be noted: read-out: Minimum Inhibitory Concentration.
Source text: as §2, §3, §4, §5

A further data set concerns Klebsiella pneumoniae. The data set can be described thus: Gradient Plate technique, MIC. It is filed as cell-based. As to conditions: read-out: Minimum Inhibitory Concentration.
Source text: as §2, §3, §4, §5

The nature of another data set: Electrometric titration. The data set is classed as physicochemical. To be noted: 66% aqueous dmf, read-out: pKa.
Data set [11] deals with Penicillin Resistant Staphylococcus. The data set can be described thus: Gradient Plate technique, MIC. To be noted: read-out: Minimum Inhibitory Concentration. It is filed as cell-based. The text has this:
The following Table II lists the minimum inhibitory concentration (MIC) for 7-[2-(2-thienyl)acetamido]-3-chloro-3-cephem-4-carboxylic acid against penicillin resistant Staphylococcus both in the presence of and absence of serum. The MIC values were obtained by the Gradient Plate technique carried out essentially as described by Bryson and Szybalski, Science, 116, 45 (1952). […]

≈ marks a conversion by molar mass, not a printed value. Where a name gives a salt, the structure may show the parent alone. Read-outs that look alike come from different tables or passages of the source.

In the case of `O=CO[C@@H](C(=O)NC1C(=O)N2C(C(=O)O)=C(Cl)CSC12)c1ccccc1` (stereo partly drawn) [7-[O-(Formyl)-D-mandelamido]-3-chloro-3-cephem-4-carboxylic acid], the “Minimum Inhibitory Concentration” value in data set [1] (Serum) is above 20 µg/mL. The MIC in [1] (Staphylococcus, No Serum, read-out: Minimum Inhibitory Concentration) was above 20 µg/mL; in [2], 128 µg/mL (≈ 323 µM); with Escherichia coli EC14, 8 µg/mL (≈ 20.2 µM); in [3] it was 128 µg/mL (≈ 323 µM); in the data set on Salmonella typhimurium it was 1 µg/mL (≈ 2.52 µM); in the data set with Aspergillus flavus E, above 128 µg/mL. Besides, the MIC in data set [4] was 64 µg/mL (≈ 161 µM); in data set [5] it was above 0.25 µg/mL; with Proteus morganii PR15, 4 µg/mL (≈ 10.1 µM); in the data set on Erwinia amylovora, above 128 µg/mL; in the data set with Serratia marcescens SE3, above 128 µg/mL; in the data set on Candida tropicalis A17, above 128 µg/mL. For the same compound, the MIC in the data set on Ceratocystis ulmi was above 128 µg/mL; in [6], 4 µg/mL (≈ 10.1 µM); in the data set with Salmonella typhosa SA12, 0.5 µg/mL (≈ 1.26 µM); in the data set with Citrobacter freundii it was above 128 µg/mL; in [7], 1 µg/mL (≈ 2.52 µM); in data set [8], 128 µg/mL (≈ 323 µM). In addition, the MIC was above 128 µg/mL in [9]; 64 µg/mL (≈ 161 µM) in [10]; 6.3 µg/mL (≈ 15.9 µM) with Escherichia coli; 160 µg/mL (≈ 403 µM) with Serratia marcescens; 0.6 µg/mL (≈ 1.51 µM) with Salmonella heidelberg; 0.7 µg/mL (≈ 1.76 µM) in the data set on Aerobacter aerogenes. Further, the MIC in the data set on Pseudomonas aeruginosa is above 200 µg/mL; with Shigella sp., 4 µg/mL (≈ 10.1 µM); in the data set with Klebsiella pneumoniae it was 1 µg/mL (≈ 2.52 µM); in data set [11] (Clinical Isolate V 32, No Serum), 8 µg/mL (≈ 20.2 µM); in [11] (Clinical Isolate V 32, Serum), above 20 µg/mL; in data set [11] (Clinical Isolate V 41, No Serum) it was 5.8 µg/mL (≈ 14.6 µM). Moreover, the MIC in data set [11] (Clinical Isolate V 41, Serum) was above 20 µg/mL; in [11] (Clinical Isolate V 84, No Serum) it was 0.4 µg/mL (≈ 1.01 µM); in [11] (Clinical Isolate V 84, Serum) it was 1 µg/mL (≈ 2.52 µM); in data set [11] (Clinical Isolate X 1.1, No Serum), below 0.1 µg/mL; in data set [11] (Clinical Isolate X 1.1, Serum), below 0.1 µg/mL. For the same compound, in “Electrometric titration” (only or first pKa), the pKa was found to be 4.5.
For the compound `NC1C(=O)N2C(C(=O)OCc3ccc([N+](=O)[O-])cc3)=C(O)CS[C@H]12` (stereo partly drawn) [Example 5, p-Nitrobenzyl 7-amino-3-hydroxy-3-cephem-4-carboxylate hydrochloride], the pKa came to 6.3 in “Electrometric titration” (66% DMF, second pKa) and 4 in “Electrometric titration” (only or first pKa).
